Source: patent publication US20060069132A1, “Azolecarboxamide herbicides” (priority 2004, published 2006)
Where two headings read alike, the source gives them in different places.

What was measured:
lambsquarters = experiment: Test C pre-/postemergence herbicide test; assay type: in vivo, Chenopodium album; settings: preemergence
Source text: (§1) Seeds of plant species selected from bermudagrass (Cynodon dactylon (L.) Pers.), Surinam grass (Urochloa decumbens (Staph) R. D. Webster, previously named Brachiaria decumbens Stapf), cocklebur (Xanthium strumarium L.), corn (Zea mays L.), large crabgrass (Digitaria sanguinalis (L.) Scop.), woolly cupgrass (Eriochloa villosa (Thunb.) Kunth), giant foxtail (Setaria faberi Herrm.), goosegrass (Eleusine indica (L.) Gaertn.), johnsongrass (Sorghum halepense (L.) Pers.), kochia (Kochia scoparia (L.) Schrad.), lambsquarters (Chenopodium album L.), morningglory (Ipomoea coccinea L.), eastern black nightshade (Solanum ptycanthum Dunal), yellow nutsedge (Cyperus esculentus L.), pigweed (Amaranthus retroflexus L.), common ragweed (Ambrosia elatior L.), soybean (Glycine max (L.) Merr.), common (oilseed) sunflower (Helianthus annuus L.) and velvetleaf (Abutilon theophrasti Medik.) were planted and treated preemergence with test chemicals formulated in a non-phytotoxic solvent mixture which included a surfactant.
(§2) At the same time, plants selected from these crop and weed species and also winter barley (Hordeum vulgare L.), blackgrass (Alopecurus myosuroides Huds.), canarygrass (Phalaris minor Retz.), chickweed (Stellaria media (L.) Vill.), downy bromegrass (Bromus tectorum L.), green foxtail (Setaria viridis (L.) Beauv.), Italian ryegrass (Lolium multiflorum Lam.), wheat (Triticum aestivum L.), wild oat (Avenafatua L.) and windgrass (Apera spica-venti (L.) Beauv.) were treated with postemergence applications of some of the test chemicals formulated in the same manner. Plants ranged in height from 2 to 18 cm (1- to 4-leaf stage) for postemergence treatments. Plant species in the flooded paddy test consisted of rice (Oryza sativa), smallflower umbrella sedge (Cyperus difformis L.), ducksalad (Heteranthera limosa (Sw.) Willd.) and barnyardgrass (Echinochloa crus-galli (L.) Beauv.) grown to the 2-leaf stage for testing. Treated plants and controls were maintained in a greenhouse for 12 to 14 days, after which time all species were compared to controls and visually evaluated. Plant response ratings, summarized in Table C, are based on a scale of 0 to 100 where 0 is no effect and 100 is complete control. A dash (-) response means no test result.

yellow nutsedge = experiment: Test C pre-/postemergence herbicide test; assay type: in vivo, Cyperus esculentus; settings: preemergence
Source text: as §1, §2

woolly cupgrass = experiment: Test C pre-/postemergence herbicide test; assay type: in vivo, Eriochloa villosa; settings: preemergence
Source text: as §1, §2

johnsongrass = experiment: Test C pre-/postemergence herbicide test; assay type: in vivo, Sorghum halepense; settings: preemergence
Source text: as §1, §2

barnyardgrass = experiment: Test C flooded paddy test; assay type: in vivo, Echinochloa crus-galli
Method in brief: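 Postemergence sprays were applied to plants 2 to 18 cm tall (1- to 4-leaf stage); in the flooded paddy test, barnyardgrass was grown to the 2-leaf stage. After 12 to 14 days in a greenhouse, injury was visually rated against untreated controls on a 0–100 scale (100 = complete control).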

redroot pigweed = experiment: Test A pre-/postemergence herbicide test; assay type: in vivo, Amaranthus retroflexus; settings: for pest or weed control at 500 g/ha / pest or weed control at 2000 g/ha: Amaranthus retroflexus, 240 h
Method in brief: (§3)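 Greenhouse injury scoring (0–100, complete control = 100) at approximately ten days follows simultaneous pre- and postemergence application. Soil received a directed spray after seeding; seedlings of 2–10 cm at the one- to two-leaf stage were sprayed to runoff.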

giant foxtail = experiment: Test A pre-/postemergence herbicide test; assay type: in vivo, Setaria faberi; settings: for pest or weed control at 500 g/ha / pest or weed control at 2000 g/ha: Setaria faberi, 240 h
Method in brief: as §3

large crabgrass = experiment: Test A pre-/postemergence herbicide test; assay type: in vivo, Digitaria sanguinalis; settings: for pest or weed control at 500 g/ha / pest or weed control at 2000 g/ha: Digitaria sanguinalis, 240 h
Method in brief: as §3

[1] = 500 g ai/ha, scale 0 to 100 (0 no effect, 100 complete control), visual, 12 to 14 days
[2] = Postemergence, 500 g ai/ha, 0 to 100 scale, 0 no effect, 100 complete control
[3] = Postemergence, 2000 g ai/ha, 0 to 100 scale, 0 no effect, 100 complete control
[4] = Preemergence, 500 g ai/ha, visual rating, 0 to 100 scale (0 no effect, 100 complete control)
[5] = Preemergence, 2000 g ai/ha, 0 to 100 scale, 0 no effect, 100 complete control

CCN(CC)C(=O)c1cccc(NC(=O)c2nn(C(C)(C)C)nc2C)c1 [Compound 418]
Plant response rating, Lambsquarters (lambsquarters; 62 g ai/ha, scale 0 to 100): 95
Plant response rating (0 = no effect, 100 = complete control), Lambsquarters (lambsquarters; 125 g ai/ha): 100
Plant response rating, Lambsquarters (lambsquarters; 250 g ai/ha, scale 0-100): 100
Plant response rating, Lambsquarters (lambsquarters; [1]): 100
Plant response rating, Nutsedge, Yellow (yellow nutsedge; 62 g ai/ha, scale 0 to 100): 0
Plant response rating (0 = no effect, 100 = complete control), Nutsedge, Yellow (yellow nutsedge; 125 g ai/ha): 0
Plant response rating, Nutsedge, Yellow (yellow nutsedge; [1]): 0
Plant response rating, Cupgrass, Woolly (woolly cupgrass; 62 g ai/ha, scale 0 to 100): 0
Plant response rating (0 = no effect, 100 = complete control), Cupgrass, Woolly (woolly cupgrass; 125 g ai/ha): 0
Plant response rating, Cupgrass, Woolly (woolly cupgrass; 250 g ai/ha, scale 0-100): 10
Plant response rating, Cupgrass, Woolly (woolly cupgrass; [1]): 95
Plant response rating, Johnsongrass (johnsongrass; 62 g ai/ha, scale 0 to 100): 95
Plant response rating (0 = no effect, 100 = complete control), Johnsongrass (johnsongrass; 125 g ai/ha): 95
Plant response rating, Johnsongrass (johnsongrass; 250 g ai/ha, scale 0-100): 95
Plant response rating, Johnsongrass (johnsongrass; [1]): 95

CCc1nn(C(C)C)nc1C(=O)Nc1cccc(C(=O)N(C)C)c1 [Compound 358, N-[3-[(dimethylamino)carbonyl)phenyl]-5-ethyl-2-(1-methylethyl)-2H-1,2,3-triazole-4-carboxamide]
pest or weed control at 62 g/ha (barnyardgrass; Echinochloa crus-galli, 62 g ai/ha, scale 0 to 100 (0 no effect, 100 complete control), read-out: Barnyardgrass plant response rating): 0%
pest or weed control at 125 g/ha (barnyardgrass; Echinochloa crus-galli, 125 g ai/ha, scale 0 to 100 (0 no effect, 100 complete control), read-out: Barnyardgrass plant response rating): 60%
pest or weed control at 250 g/ha (barnyardgrass; Echinochloa crus-galli, 250 g ai/ha, scale of 0 to 100, 0 is no effect, 100 is complete control, read-out: Barnyardgrass plant response rating): 75%
pest or weed control at 500 g/ha (barnyardgrass; Echinochloa crus-galli, 500 g ai/ha, visual rating after 12 to 14 days, scale 0 to 100 (0 no effect, 100 complete control), read-out: Plant response rating, Barnyardgrass): 85%

CCn1nc(C(C)(C)C)cc1C(=O)Nc1cccc(C(=O)OC)n1 [Compound 143, methyl 6-[[[3-(1,1-dimethylethyl)-1-ethyl-1H-pyrazol-5-yl]carbonyl]amino]-2-pyridinecarboxylate]
pest or weed control at 500 g/ha (redroot pigweed; post-emergence, Postemergence, 500 g ai/ha, 0 to 100 scale, 0 no effect, 100 complete control, read-out: Pigweed plant response rating): 20%
pest or weed control at 2000 g/ha (redroot pigweed; post-emergence, Postemergence, 2000 g ai/ha, 0 to 100 scale, 0 no effect, 100 complete control, read-out: Plant response rating, Pigweed): 35%
pest or weed control at 2000 g/ha (redroot pigweed; pre-emergence, Preemergence, 2000 g ai/ha, visual rating, 0 to 100 scale (0 no effect, 100 complete control), read-out: Pigweed plant response rating): 0%
pest or weed control at 500 g/ha (redroot pigweed; pre-emergence, preemergence, 500 g ai/ha, visual injury, 0 to 100 scale (0 no effect, 100 complete control), read-out: Pigweed plant response rating): 0%
pest or weed control at 500 g/ha (giant foxtail; post-emergence, Postemergence, 500 g ai/ha, 0 to 100 scale, 0 no effect, 100 complete control, read-out: Foxtail, Giant plant response rating): 10%
pest or weed control at 2000 g/ha (giant foxtail; post-emergence, Postemergence, 2000 g ai/ha, 0 to 100 scale, 0 no effect, 100 complete control, read-out: Plant response rating, Foxtail, Giant): 15%
pest or weed control at 500 g/ha (giant foxtail; pre-emergence, Preemergence, 500 g ai/ha, visual rating, 0 to 100 scale (0 no effect, 100 complete control), read-out: Foxtail, Giant plant response rating): 0%
pest or weed control at 2000 g/ha (giant foxtail; pre-emergence, Preemergence, 2000 g ai/ha, visual rating, 0 to 100 scale (0 no effect, 100 complete control), read-out: Foxtail, Giant plant response rating): 0%
pest or weed control at 500 g/ha (large crabgrass; post-emergence, Postemergence, 500 g ai/ha, 0 to 100 scale, 0 no effect, 100 complete control, read-out: Crabgrass, Large plant response rating): 20%
pest or weed control at 2000 g/ha (large crabgrass; post-emergence, Postemergence, 2000 g ai/ha, 0 to 100 scale, 0 no effect, 100 complete control, read-out: Plant response rating, Crabgrass, Large): 30%
pest or weed control at 500 g/ha (large crabgrass; pre-emergence, Preemergence, 500 g ai/ha, visual rating, 0 to 100 scale (0 no effect, 100 complete control), read-out: Crabgrass, Large plant response rating): 0%
pest or weed control at 2000 g/ha (large crabgrass; pre-emergence, Preemergence, 2000 g ai/ha, visual rating, 0 to 100 scale (0 no effect, 100 complete control), read-out: Crabgrass, Large plant response rating): 15%

CCOC(=O)c1cccc(NC(=O)c2cc(C(C)(C)C)nn2CCF)c1 [Compound 79]
Plant response rating, Pigweed (redroot pigweed; [2]): 95
Plant response rating, Pigweed (redroot pigweed; [3]): 85
Pigweed plant response rating (redroot pigweed; [4]): 45
Pigweed plant response rating (redroot pigweed; [5]): 90
Plant response rating, Foxtail, Giant (giant foxtail; [2]): 30
Plant response rating, Foxtail, Giant (giant foxtail; [3]): 40
Foxtail, Giant plant response rating (giant foxtail; [4]): 10
Foxtail, Giant plant response rating (giant foxtail; [5]): 40
Barnyardgrass plant response rating (barnyardgrass; 62 g ai/ha, scale 0 to 100 (0 no effect, 100 complete control)): 10
Barnyardgrass plant response rating (barnyardgrass; 125 g ai/ha, scale of 0 to 100, 0 is no effect, 100 is complete control): 25
Barnyardgrass plant response rating (barnyardgrass; 250 g ai/ha, scale of 0 to 100, 0 is no effect, 100 is complete control): 25
Plant response rating, Barnyardgrass (barnyardgrass; 500 g ai/ha, visual rating after 12 to 14 days, scale 0 to 100 (0 no effect, 100 complete control)): 80
Plant response rating, Crabgrass, Large (large crabgrass; [2]): 20
Plant response rating, Crabgrass, Large (large crabgrass; [3]): 55
Crabgrass, Large plant response rating (large crabgrass; [4]): 50
Crabgrass, Large plant response rating (large crabgrass; [5]): 55
